Data as given in patent publication US7135499B2, “Active substance combinations having insecticidal and acaricidal properties” (priority 2002, dated 2006).
Where “and” joins values, the source holds several entries; their conditions need not be identical. Equal values may be shown once. Read-outs that look alike come from different tables or passages of the source.

Columns and labels:
[1] = tested on: caterpillars of the armyworm (Spodoptera frugiperda); assay: Spodoptera frugiperda test; type: in vivo; conditions: for pest or weed control at 0.6 ppm: read-out: Kill rate in % found, 0.6 ppm; for pest or weed control at 0.16 ppm: read-out: Kill rate in % found, 0.16 ppm
[2] = tested on: caterpillars of the diamondback moth (Plutella xylostella, sensitive strain); assay: Plutella test, sensitive strain; type: in vivo
[3] = tested on: caterpillars of the diamondback moth (Plutella xylostella, resistant strain); assay: Plutella test, resistant strain; type: in vivo
[4] = tested on: caterpillars of the armyworm (Spodoptera exigua); assay: Spodoptera exigua test; type: in vivo
[5] = tested on: Heliothis armigera caterpillars; assay: Heliothis armigera test; type: in vivo; conditions: for pest or weed control at 0.024 ppm: read-out: Kill rate in % found, 0.024 ppm; for pest or weed control at 3 ppm: read-out: Kill rate in % found, 3 ppm; for pest or weed control at 0.12 ppm: read-out: Kill rate in % found, 0.12 ppm
[6] = tested on: larvae of the mustard beetle (Phaedon cochleariae); assay: Phaedon larvae test
[7] = tested on: green peach aphid (Myzus persicea); assay: Myzus test; type: in vivo
[8] = tested on: cotton aphid (Aphis gossypii); assay: Aphis gossypii test; type: in vivo; conditions: after 6 d
[9] = Spodoptera frugiperda, 72 h, after 3 d
[10] = Helicoverpa armigera, 144 h, after 6 d
[11] = Helicoverpa armigera, 72 h, after 3 d
[12] = Spodoptera frugiperda, 144 h, after 6 d

spinosad
Kill rate in % found ([1]; 0.032 ppm, after 3 d): 35% | Kill rate in % found ([2]; 0.0064 ppm, after 3 d): 5%

O=C(NC(=O)c1ccccc1Cl)Nc1ccc(OC(F)(F)F)cc1 [triflumuron]
Kill rate in % found ([3]; 3 ppm, after 6 d): 0% | Kill rate in % found ([4]; 15 ppm, after 3 d): 15% | pest or weed control at 0.12 ppm ([1]; Spodoptera frugiperda, 72 h, read-out: Kill rate in % found, 0.12 ppm, after 3 d): 5% | pest or weed control at 15 ppm ([5]; Helicoverpa armigera, 72 h, read-out: Kill rate in % found, 15 ppm, after 3 d): 0% | Kill rate in % found ([6]; 0.6 ppm, after 6 d): 0% | Kill rate in % found ([2]; 0.6 ppm, after 3 d): 0%

CC[S+]([O-])c1c(C#N)nn(-c2c(Cl)cc(C(F)(F)F)cc2Cl)c1N (centres unmarked) [ethiprole]
pest or weed control at 20 ppm ([1]; Spodoptera frugiperda, 144 h, read-out: Kill rate in % found, 20 ppm, after 6 d): 10%

COC(=O)N(C(=O)N1COC2(C(=O)OC)Cc3cc(Cl)ccc3C2=N1)c1ccc(OC(F)(F)F)cc1 (centres unmarked) [indoxacarb]
Kill rate in % found ([3]; 0.12 ppm, after 6 d): 50% | Kill rate in % found ([4]; 0.6 ppm, after 3 d): 20% | pest or weed control at 0.6 ppm [1, 9]: 60% | pest or weed control at 0.024 ppm [5, 10]: 0% | Kill rate in % found ([6]; 0.6 ppm, after 3 d): 35% | Kill rate in % found ([2]; 0.024 ppm, after 3 d): 0%

N#C/N=C1\SCCN1Cc1ccc(Cl)nc1 [thiacloprid]
Kill rate in % found ([3]; 3 ppm, after 3 d): 5% | Kill rate in % found ([7]; 3 ppm, after 6 d): 60% | Kill rate in % found ([8]; 3 ppm): 50% | Kill rate in % found ([6]; 15 ppm, after 6 d): 85%

emamectin-benzoate
Kill rate in % found ([3]; 0.00024 ppm, after 6 d): 15% | Kill rate in % found ([4]; 0.0012 ppm, after 6 d): 20% | Kill rate in % found ([1]; 0.006 ppm, after 3 d): 70% | Kill rate in % found ([5]; 0.00024 ppm, after 6 d): 0% | Kill rate in % found ([6]; 0.006 ppm, after 6 d): 10% | Kill rate in % found ([2]; 0.00024 ppm, after 6 d): 10%

CC1(C)[C@H](C(=O)O[C@H](C#N)c2cccc(Oc3ccccc3)c2)[C@@H]1C=C(Br)Br [deltamethrin]
Kill rate in % found ([4]; 0.00128 ppm, after 4 d): 0% | pest or weed control at 0.0064 ppm ([1]; Spodoptera frugiperda, 96 h, read-out: Kill rate in % found, 0.0064 ppm, after 4 d): 0% | pest or weed control at 0.0064 ppm ([5]; Helicoverpa armigera, 96 h, read-out: Kill rate in % found, 0.0064 ppm, after 4 d): 10% | Kill rate in % found ([2]; 0.00128 ppm, after 6 d): 40%

CN/C(=N\[N+](=O)[O-])NCc1cnc(Cl)s1 [clothianidin]
pest or weed control at 3 ppm [5, 11]: 10% | Kill rate in % found ([7]; 0.6 ppm, after 6 d): 60%

Cc1cc(C(F)(C(F)(F)F)C(F)(F)F)ccc1NC(=O)c1cccc(I)c1C(=O)NC(C)(C)CS(C)(=O)=O [(I), N^2-[1,1-dimethyl-2-(methylsulphonyl)ethyl]-3-iodo-N^1-{2-methyl-4-[1,2,2,2-tetrafluoro-1-(trifluoromethyl)ethyl]phenyl}phthalamide]
Kill rate in % found ([3]; 0.0048 ppm, after 6 d): 10% and 0% | Kill rate in % found ([3]; 0.02 ppm, after 6 d): 30% | Kill rate in % found ([3]; 0.024 ppm, after 3 d): 70% | Kill rate in % found ([4]; 0.024 ppm, after 6 d): 40% | Kill rate in % found ([4]; 0.032 ppm, after 4 d): 10% | Kill rate in % found ([4]; 0.12 ppm, after 6 d): 85% | pest or weed control at 0.16 ppm [1, 9]: 70% | pest or weed control at 0.16 ppm ([1]; Spodoptera frugiperda, 96 h, after 4 d): 70% | pest or weed control at 0.02 ppm ([1]; Spodoptera frugiperda, 144 h, read-out: Kill rate in % found, 0.02 ppm, after 6 d): 5% | pest or weed control at 0.16 ppm [1, 12]: 95% | pest or weed control at 0.024 ppm [5, 11]: 80% | pest or weed control at 0.1 ppm ([5]; Helicoverpa armigera, 72 h, read-out: Kill rate in % found, 0.1 ppm, after 3 d): 80% | pest or weed control at 0.12 ppm [5, 11]: 80% | pest or weed control at 0.032 ppm ([5]; Helicoverpa armigera, 96 h, read-out: Kill rate in % found, 0.032 ppm, after 4 d): 90% | pest or weed control at 0.024 ppm [5, 10]: 70% | Kill rate in % found ([7]; 100 ppm, after 1 d): 0% | Kill rate in % found ([7]; 500 ppm, after 6 d): 0% | Kill rate in % found ([8]; 500 ppm): 0% | Kill rate in % found ([6]; 0.12 ppm, after 3 d): 0% | Kill rate in % found ([6]; 0.12 ppm, after 6 d): 0% | Kill rate in % found ([6]; 0.6 ppm, after 3 d): 0% | Kill rate in % found ([6]; 3 ppm, after 3 d): 60% | Kill rate in % found ([6]; 3 ppm, after 6 d): 70% | Kill rate in % found ([2]; 0.0048 ppm, after 3 d): 0% | Kill rate in % found ([2]; 0.0048 ppm, after 6 d): 25% | Kill rate in % found ([2]; 0.0064 ppm, after 6 d): 60% | Kill rate in % found ([2]; 0.024 ppm, after 3 d): 55% | Kill rate in % found ([2]; 0.032 ppm, after 3 d): 65%

COc1cccc(C(=O)NN(C(=O)c2cc(C)cc(C)c2)C(C)(C)C)c1C [methoxyfenozide]
Kill rate in % found ([3]; 0.6 ppm, after 6 d): 0% | pest or weed control at 0.6 ppm [1, 12]: 5% | pest or weed control at 3 ppm [5, 11]: 50%

CN1COCN(Cc2cnc(Cl)s2)/C1=N/[N+](=O)[O-] [thiamethoxam]
Kill rate in % found ([3]; 3 ppm, after 6 d): 0% | Kill rate in % found ([7]; 0.6 ppm, after 1 d): 85% | Kill rate in % found ([6]; 15 ppm, after 3 d): 85%

O=C(NC(=O)c1c(F)cccc1F)Nc1ccc(Oc2ccc(C(F)(F)F)cc2Cl)cc1F [flufenoxuron]
Kill rate in % found ([3]; 0.12 ppm, after 6 d): 40% | Kill rate in % found ([4]; 0.6 ppm, after 3 d): 0% | pest or weed control at 0.12 ppm [5, 10]: 15% | Kill rate in % found ([6]; 3 ppm, after 3 d): 0% | Kill rate in % found ([2]; 0.12 ppm, after 3 d): 0%

CN/C(=N\[N+](=O)[O-])NCC1CCOC1 (centres unmarked) [dinotefuran]
pest or weed control at 3 ppm ([1]; Spodoptera frugiperda, 72 h, read-out: Kill rate in % found, 3 ppm, after 3 d): 40% | Kill rate in % found ([7]; 3 ppm, after 1 d): 15%

N#Cc1nn(-c2c(Cl)cc(C(F)(F)F)cc2Cl)c(N)c1[S+]([O-])C(F)(F)F (centres unmarked) [fipronil]
pest or weed control at 0.6 ppm [1, 9]: 20% | pest or weed control at 0.12 ppm [5, 10]: 10% | Kill rate in % found ([2]; 0.12 ppm, after 3 d): 65%

abamectin
Kill rate in % found ([4]; 3 ppm, after 6 d): 70% | Kill rate in % found ([1]; 3 ppm, after 3 d): 25% | Kill rate in % found ([5]; 0.0048 ppm, after 6 d): 30% | Kill rate in % found ([6]; 0.12 ppm, after 3 d): 25% | Kill rate in % found ([2]; 0.00096 ppm, after 3 d): 35%
